Assay results published in ChEMBL document CHEMBL5724914, “Linking interpersonal differences in gut microbiota composition and drug biotransformation activity” (2024).

assay: (§1) The drug is tested on Z-021 corresponding to metagenome with ENA study accession number: PRJEB37062 and ENA sample accession number: ERS12561820 for biotransformation under anaerobic condition. The drug concentrations were measured over 9 timepoints collected between 0 and 24 hours of incubation by liquid-chromatography-coupled mass spectrometry (LC–MS); settings: 2 µM
Further: call rule not given here.

Row | Bacterial Biotransformation | SMILES
1 | Compound metabolized | CCOc1ccccc1OCCN[C@H](C)Cc1ccc(OC)c(S(N)(=O)=O)c1.Cl [TAMSULOSIN HYDROCHLORIDE]
2 | Compound NOT metabolized | COc1cc2nc(N3CCN(C(=O)C4CCCO4)CC3)nc(N)c2cc1OC (stereo not given) [TERAZOSIN]

assay: (§2) The drug is tested on Z-019 corresponding to rat gut metagenome with ENA study accession number: PRJEB37062 and ENA sample accession number: ERS12561818 for biotransformation under anaerobic condition. The drug concentrations were measured over 9 timepoints collected between 0 and 24 hours of incubation by liquid-chromatography-coupled mass spectrometry (LC–MS); settings: 2 µM

Row | Bacterial Biotransformation | SMILES
3 | Compound NOT metabolized | CCOc1ccccc1OCCN[C@H](C)Cc1ccc(OC)c(S(N)(=O)=O)c1.Cl [TAMSULOSIN HYDROCHLORIDE]
4 | Compound NOT metabolized | COc1cc2nc(N3CCN(C(=O)C4CCCO4)CC3)nc(N)c2cc1OC (stereo not given) [TERAZOSIN]

assay: as §2, with “on Z-018” for “on Z-019”, “to pig” for “to rat”, “number: ERS12561817” for “number: ERS12561818”; settings: 2 µM

Row | Bacterial Biotransformation | SMILES
5 | Compound NOT metabolized | CCOc1ccccc1OCCN[C@H](C)Cc1ccc(OC)c(S(N)(=O)=O)c1.Cl [TAMSULOSIN HYDROCHLORIDE]
6 | Compound metabolized | COc1cc2nc(N3CCN(C(=O)C4CCCO4)CC3)nc(N)c2cc1OC (stereo not given) [TERAZOSIN]

assay: as §2, with “on Z-017” for “on Z-019”, “to mouse” for “to rat”, “number: ERS12561816” for “number: ERS12561818”; settings: 2 µM

Row | Bacterial Biotransformation | SMILES
7 | Compound NOT metabolized | CCOc1ccccc1OCCN[C@H](C)Cc1ccc(OC)c(S(N)(=O)=O)c1.Cl [TAMSULOSIN HYDROCHLORIDE]
8 | Compound NOT metabolized | COc1cc2nc(N3CCN(C(=O)C4CCCO4)CC3)nc(N)c2cc1OC (stereo not given) [TERAZOSIN]

assay: as §2, with “Z-014” for “Z-019”, “ERS12561814” for “ERS12561818”; settings: 2 µM

Row | Bacterial Biotransformation | SMILES
9 | Compound NOT metabolized | CCOc1ccccc1OCCN[C@H](C)Cc1ccc(OC)c(S(N)(=O)=O)c1.Cl [TAMSULOSIN HYDROCHLORIDE]
10 | Compound NOT metabolized | COc1cc2nc(N3CCN(C(=O)C4CCCO4)CC3)nc(N)c2cc1OC (stereo not given) [TERAZOSIN]

assay: as §1, with “Z-010” for “Z-021”, “ERS12561810” for “ERS12561820”; settings: 2 µM

Row | Bacterial Biotransformation | SMILES
11 | Compound NOT metabolized | CCOc1ccccc1OCCN[C@H](C)Cc1ccc(OC)c(S(N)(=O)=O)c1.Cl [TAMSULOSIN HYDROCHLORIDE]
12 | Compound metabolized | COc1cc2nc(N3CCN(C(=O)C4CCCO4)CC3)nc(N)c2cc1OC (stereo not given) [TERAZOSIN]

assay: as §1, with “Z-005” for “Z-021”, “ERS12561805” for “ERS12561820”; settings: 2 µM

Row | Bacterial Biotransformation | SMILES
13 | Compound NOT metabolized | CCOc1ccccc1OCCN[C@H](C)Cc1ccc(OC)c(S(N)(=O)=O)c1.Cl [TAMSULOSIN HYDROCHLORIDE]
14 | Compound metabolized | COc1cc2nc(N3CCN(C(=O)C4CCCO4)CC3)nc(N)c2cc1OC (stereo not given) [TERAZOSIN]

assay: as §2, with “on Z-001” for “on Z-019”, “to mouse” for “to rat”, “number: ERS12561801” for “number: ERS12561818”; settings: 2 µM

Row | Bacterial Biotransformation | SMILES
15 | Compound NOT metabolized | CCOc1ccccc1OCCN[C@H](C)Cc1ccc(OC)c(S(N)(=O)=O)c1.Cl [TAMSULOSIN HYDROCHLORIDE]
16 | Compound NOT metabolized | COc1cc2nc(N3CCN(C(=O)C4CCCO4)CC3)nc(N)c2cc1OC (stereo not given) [TERAZOSIN]

assay: as §2, with “on WLS-170” for “on Z-019”, “to human” for “to rat”, “number: ERS12561762” for “number: ERS12561818”; settings: 2 µM

Row | Bacterial Biotransformation | SMILES
17 | Compound metabolized | CCOc1ccccc1OCCN[C@H](C)Cc1ccc(OC)c(S(N)(=O)=O)c1.Cl [TAMSULOSIN HYDROCHLORIDE]
18 | Compound NOT metabolized | COc1cc2nc(N3CCN(C(=O)C4CCCO4)CC3)nc(N)c2cc1OC (stereo not given) [TERAZOSIN]

assay: as §2, with “on WLS-090” for “on Z-019”, “to human” for “to rat”, “number: ERS12561753” for “number: ERS12561818”; settings: 2 µM

Row | Bacterial Biotransformation | SMILES
19 | Compound metabolized | CCOc1ccccc1OCCN[C@H](C)Cc1ccc(OC)c(S(N)(=O)=O)c1.Cl [TAMSULOSIN HYDROCHLORIDE]
20 | Compound metabolized | COc1cc2nc(N3CCN(C(=O)C4CCCO4)CC3)nc(N)c2cc1OC (stereo not given) [TERAZOSIN]

assay: as §2, with “on WLS-086” for “on Z-019”, “to human” for “to rat”, “number: ERS12561752” for “number: ERS12561818”; settings: 2 µM

Row | Bacterial Biotransformation | SMILES
21 | Compound metabolized | CCOc1ccccc1OCCN[C@H](C)Cc1ccc(OC)c(S(N)(=O)=O)c1.Cl [TAMSULOSIN HYDROCHLORIDE]
22 | Compound metabolized | COc1cc2nc(N3CCN(C(=O)C4CCCO4)CC3)nc(N)c2cc1OC (stereo not given) [TERAZOSIN]

assay: as §2, with “on WLS-082” for “on Z-019”, “to human” for “to rat”, “number: ERS12561751” for “number: ERS12561818”; settings: 2 µM

Row | Bacterial Biotransformation | SMILES
23 | Compound NOT metabolized | CCOc1ccccc1OCCN[C@H](C)Cc1ccc(OC)c(S(N)(=O)=O)c1.Cl [TAMSULOSIN HYDROCHLORIDE]
24 | Compound metabolized | COc1cc2nc(N3CCN(C(=O)C4CCCO4)CC3)nc(N)c2cc1OC (stereo not given) [TERAZOSIN]

assay: as §2, with “on WLS-039” for “on Z-019”, “to human” for “to rat”, “number: ERS12561746” for “number: ERS12561818”; settings: 2 µM

Row | Bacterial Biotransformation | SMILES
25 | Compound NOT metabolized | CCOc1ccccc1OCCN[C@H](C)Cc1ccc(OC)c(S(N)(=O)=O)c1.Cl [TAMSULOSIN HYDROCHLORIDE]
26 | Compound NOT metabolized | COc1cc2nc(N3CCN(C(=O)C4CCCO4)CC3)nc(N)c2cc1OC (stereo not given) [TERAZOSIN]

assay: as §2, with “on WLS-027” for “on Z-019”, “to human” for “to rat”, “number: ERS12561744” for “number: ERS12561818”; settings: 2 µM

Row | Bacterial Biotransformation | SMILES
27 | Compound NOT metabolized | CCOc1ccccc1OCCN[C@H](C)Cc1ccc(OC)c(S(N)(=O)=O)c1.Cl [TAMSULOSIN HYDROCHLORIDE]
28 | Compound NOT metabolized | COc1cc2nc(N3CCN(C(=O)C4CCCO4)CC3)nc(N)c2cc1OC (stereo not given) [TERAZOSIN]

settings: human gut metagenome, 24 h, 2 µM

Row | Bacterial Biotransformation | SMILES
29 | Compound NOT metabolized | CCOc1ccccc1OCCN[C@H](C)Cc1ccc(OC)c(S(N)(=O)=O)c1.Cl [TAMSULOSIN HYDROCHLORIDE]
30 | Compound NOT metabolized | COc1cc2nc(N3CCN(C(=O)C4CCCO4)CC3)nc(N)c2cc1OC (stereo not given) [TERAZOSIN]

settings: human gut metagenome, 24 h, 2 µM; remark: another data set of the same source

Row | Bacterial Biotransformation | SMILES
31 | Compound NOT metabolized | CCOc1ccccc1OCCN[C@H](C)Cc1ccc(OC)c(S(N)(=O)=O)c1.Cl [TAMSULOSIN HYDROCHLORIDE]
32 | Compound NOT metabolized | COc1cc2nc(N3CCN(C(=O)C4CCCO4)CC3)nc(N)c2cc1OC (stereo not given) [TERAZOSIN]

settings: human gut metagenome, 24 h, 2 µM; remark: another data set of the same source

Row | Bacterial Biotransformation | SMILES
33 | Compound NOT metabolized | CCOc1ccccc1OCCN[C@H](C)Cc1ccc(OC)c(S(N)(=O)=O)c1.Cl [TAMSULOSIN HYDROCHLORIDE]
34 | Compound metabolized | COc1cc2nc(N3CCN(C(=O)C4CCCO4)CC3)nc(N)c2cc1OC (stereo not given) [TERAZOSIN]

settings: human gut metagenome, 24 h, 2 µM; remark: another data set of the same source

Row | Bacterial Biotransformation | SMILES
35 | Compound NOT metabolized | CCOc1ccccc1OCCN[C@H](C)Cc1ccc(OC)c(S(N)(=O)=O)c1.Cl [TAMSULOSIN HYDROCHLORIDE]
36 | Compound NOT metabolized | COc1cc2nc(N3CCN(C(=O)C4CCCO4)CC3)nc(N)c2cc1OC (stereo not given) [TERAZOSIN]

settings: human gut metagenome, 24 h, 2 µM; remark: another data set of the same source

Row | Bacterial Biotransformation | SMILES
37 | Compound NOT metabolized | CCOc1ccccc1OCCN[C@H](C)Cc1ccc(OC)c(S(N)(=O)=O)c1.Cl [TAMSULOSIN HYDROCHLORIDE]
38 | Compound metabolized | COc1cc2nc(N3CCN(C(=O)C4CCCO4)CC3)nc(N)c2cc1OC (stereo not given) [TERAZOSIN]

settings: human gut metagenome, 24 h, 2 µM; remark: another data set of the same source

Row | Bacterial Biotransformation | SMILES
39 | Compound NOT metabolized | CCOc1ccccc1OCCN[C@H](C)Cc1ccc(OC)c(S(N)(=O)=O)c1.Cl [TAMSULOSIN HYDROCHLORIDE]
40 | Compound metabolized | COc1cc2nc(N3CCN(C(=O)C4CCCO4)CC3)nc(N)c2cc1OC (stereo not given) [TERAZOSIN]
